Assay results published in article PMC9728581 (Frontiers in Pharmacology, 2022).

Tests used:
[1] = system: serum albumin; conditions: ref Gao et al., 2020; cited from earlier work
Procedure: In this study, the protein binding ratio was calculated as the average value of 92.5%.

[2] = ref Pauluzzi et al., 1987; cited from earlier work
Description: Previous studies have shown that adverse events inc ...

[3] = Unbound teicoplanin plasma concentration, ultrafiltration and UPLC-MS/MS; assay type: in vivo, human; conditions: plasma ultrafiltrate (Centrifree, 37°C), 103 observations, 72 patients, daily dose 50–1,600 mg i.v.
Procedure: (§1) However, prescribed dosing regimens were at the discretion of treating physicians based on the severity of the patient’s disease and the standard dosing regimen was not always followed. The daily dose range of patients included in this study was 50–1,600 mg.
(§2) Blood samples were typically collected within 30 min to 1 h preceding the 4th dose and the 6th dose, and depending on the actual clinical situation, blood samples might be taken at other time for TDM during the treatment. The Plasma samples were placed in a Centrifree® ultrafiltration device and placed in a 37°C water bath for 30 min, followed by centrifugation at 37°C, 1,500 × g for 30 min, and the ultrafiltrate was directly used for the determination of unbound concentration by ultra-performance liquid chromatography-tandem mass spectrometry (UPLC-MS/MS) method. […] The average relative recovery ratio was 97.9%, and the matrix effect factor was 0.97. Details of blood handling, storage and measurement have been described previously ([Fu et al., 2020]).

[4] = Population pharmacokinetic (NONMEM) model of unbound teicoplanin in Chinese adult patients; assay type: in vivo, human
Procedure: The pregnant female patients, hemodialysis patients, disseminated intravascular coagulation patients, and continuous renal replacement therapy patients were excluded.
as §1, §2
The PopPK modeling was performed using NONMEM (non-linear mixed effects modeling, v7.2, Globomax Corp, United States), and Wings for NONMEM (v6.1, Nick Holford, University of Auckland, New Zealand) was used as an auxiliary software for NONMEM execution. R (v3.6.1, Saik Urien, U.R.C. Paris Centre, Hopital Tarnier, France) was used for exploratory data analysis, data assembly, and graphical presentation of modeling and simulation results.
The parameter estimation method for PopPK model was FOCEI (first order conditional estimation with η-ε interaction option). The inter-individual variability (IIV) of the parameters were estimated using exponential random effects. θi=θ∙e^ηi (5) Where θi is the estimated parameter value of the individual i, θ represents the typical population parameter, and ηi (IIV) is assumed to follow the normal distribution with mean of 0 and variance of ω^2 and was estimated during model fitting.
The additive, proportional, and mixed residual error models were compared separately, and finally the mixed residual error model was selected for data fitting.
Covariate modeling analysis was used to explore the source of variability.
The stepwise covariate modeling approach was used to establish the covariate model in this analysis. During the forward selection step, all covariates were added to the PK parameters in the base model one by one. Covariates were screened based on the changes in objective function values (OFV) and graphical evaluation. The covariate with a significant effect (p < 0.05, e.g., df = 1, ΔOFV ≥ 3.84) would be added to the basic model to build a full model. Based on the full model, the existing covariates were deleted one by one as the backward elimination step. For each deleted covariate, the increase in OFV should be ≥ 10.83 (p < 0.001, df = 1), otherwise, this covariate should be excluded from the final model.
Continuous covariates (e.g., WT) were added to the model according to the following equation. θi=θTV×(covi/covmedian)^θx (7) Where θi is the parameter value of the ith individual; θTV is the population typical value of PK parameters; covi is the covariate value of the ith individual; covmedian is the median value of this covariate; θx is the influence coefficient of the covariate on the parameters.
Categorical covariates (e.g., gender) were added to the model according to the following equations: θi=θTV+θx,cov=xl if Cov=Xl (8) θi=θTV if Cov=X0 (9) Where θx,cov=xl is the change in a parameter when covariate X is at level l compared with the reference level (0).
The performance and stability of the final model were estimated using non-parametric bootstrap. 1,000 datasets generated by random sampling were evaluated. […]

[5] = non-parametric bootstrap, 1,000 datasets

teicoplanin
bound to serum albumin (protein binding ratio) [1]: 90%–95% | total Ctrough above which thrombocytopenia was more common [2]: > 60 µg/mL | Unbound teicoplanin concentrations, range [3]: 0.4 to 4.4 µg/mL | Unbound teicoplanin concentrations, mean ± SD ([3]; mostly trough, SD): 1.5 ± 0.9 µg/mL | θALB, bootstrap median [4, 5]: 1.55 g/L | θCL, bootstrap median [4, 5]: 11.38 L/h | θV, bootstrap median [4, 5]: 822 L | θeGFR, bootstrap median [4, 5]: 0.501 mL/min | θV, population typical value of the volume of distribution (NONMEM estimate) ([4]; unbound teicoplanin, one-compartment model, 72 patients, 103 observations, at ALB 32): 811 L | θCL, population typical value of clearance (NONMEM estimate) ([4]; unbound teicoplanin, one-compartment, first-order elimination, 72 Chinese adult patients, 103 observations, i.v. infusion, at eGFR 84): 11.7 L/h
